Values of other authors as cited in patent US7358271B2, “Sulpiride pharmaceutical compositions” (Williamsburg Holdings LLC, priority 2003, dated 2008).
Where two headings read alike, the source gives them in different places.

Tests used:
[1] = compared with physiological pH
[2] = healthy volunteers, oral
[3] = oral formulations

pKa [1]: lower than physiological pH | bioavailability ([2]; after food): 27% | bioavailability ([2]; without food): 20% | absorption in the gastrointestinal tract [3]: ~30%
Structure (SMILES): CCN1CCCC1CNC(=O)c1cc(S(N)(=O)=O)ccc1OC (stereo not shown) [sulpiride, N-(1-Ethyl-pyrrolidin-2-ylmethyl)-2-methoxy-5-sulfamoyl-benzamide]
